Measurements as given in ChEMBL document CHEMBL5665443, “Enzyme Inhibitor Single Concentration assay results for EUbOPEN Chemogenomics Library” (2024).

Legend:
Conditions in all cases: Hit No
[1] = molecular target: Endonuclease 8-like 1 (Homo sapiens) (UniProt Q96FI4);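 note: fluorescence at 594 nm from quenched duplex DNA oligonucleotides released by NEIL1 cleavage and strand separation, reported as reduction of this enzyme activity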
Description: Inhibition of NEIL1 by quantifying inhibition of NEIL1-mediated cleavage and dissociation of quenched duplex DNA oligonucleotides, measured as fluorescence at 594 nm.

[2] = molecular target: T1, Adenine DNA glycosylase (Homo sapiens) (UniProt Q9UIF7);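 note: human MUTYH activity read as 594 nm fluorescence from cleavage and release of a quenched DNA duplex, coupled with APE1 for strand incision, lower signal meaning inhibition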
T1 sequence (whole entry): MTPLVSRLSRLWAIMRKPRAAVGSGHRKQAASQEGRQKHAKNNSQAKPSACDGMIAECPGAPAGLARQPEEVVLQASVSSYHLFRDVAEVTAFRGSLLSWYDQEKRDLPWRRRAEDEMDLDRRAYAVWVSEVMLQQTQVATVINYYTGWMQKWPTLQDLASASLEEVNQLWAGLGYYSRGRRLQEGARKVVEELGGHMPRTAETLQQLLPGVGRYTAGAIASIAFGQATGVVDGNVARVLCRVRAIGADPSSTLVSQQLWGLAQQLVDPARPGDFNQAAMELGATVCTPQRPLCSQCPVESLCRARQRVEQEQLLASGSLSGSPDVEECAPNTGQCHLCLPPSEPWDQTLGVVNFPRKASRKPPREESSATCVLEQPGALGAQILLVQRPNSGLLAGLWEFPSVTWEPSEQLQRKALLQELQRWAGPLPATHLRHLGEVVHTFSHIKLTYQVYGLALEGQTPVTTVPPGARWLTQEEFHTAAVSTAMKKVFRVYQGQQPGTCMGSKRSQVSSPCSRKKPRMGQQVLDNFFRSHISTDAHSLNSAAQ
Description: Inhibition of MUTYH by quantifying inhibition of MUTYH-mediated cleavage and dissociation of quenched duplex DNA oligonucleotides, measured as fluorescence at 594 nm. To generate a functional strand incision and increase turn-over this assay is coupled to APE1.

[3] = molecular target: T2, Single-strand selective monofunctional uracil DNA glycosylase (Homo sapiens) (UniProt Q53HV7);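 note: enzymatic SMUG1 assay coupled with APE1, reading fluorescence at 594 nm released when a quenched double-stranded DNA oligonucleotide substrate is cleaved and separated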
T2 sequence (whole entry): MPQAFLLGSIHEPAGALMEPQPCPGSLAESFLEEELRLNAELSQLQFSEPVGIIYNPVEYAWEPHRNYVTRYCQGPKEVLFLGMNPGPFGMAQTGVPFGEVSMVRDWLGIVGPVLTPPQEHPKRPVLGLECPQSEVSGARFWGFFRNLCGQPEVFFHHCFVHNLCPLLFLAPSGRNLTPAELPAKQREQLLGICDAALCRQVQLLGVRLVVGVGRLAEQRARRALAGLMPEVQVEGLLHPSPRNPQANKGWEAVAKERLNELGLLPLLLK
Description: Inhibition of SMUG1 by quantifying inhibition of SMUG1-mediated cleavage and dissociation of quenched duplex DNA oligonucleotides, measured as fluorescence at 594 nm. To generate a functional strand incision and increase turn-over this assay is coupled to APE1.

[4] = molecular target: G/T mismatch-specific thymine DNA glycosylase (Homo sapiens) (UniProt Q13569);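 note: human TDG cleavage of quenched duplex DNA oligonucleotides coupled to APE1, strand release read as fluorescence at 594 nm, inhibition of TDG activity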
Sequence of G/T mismatch-specific thymine DNA glycosylase (Homo sapiens) (Q13569 whole entry, the tested form may be a part): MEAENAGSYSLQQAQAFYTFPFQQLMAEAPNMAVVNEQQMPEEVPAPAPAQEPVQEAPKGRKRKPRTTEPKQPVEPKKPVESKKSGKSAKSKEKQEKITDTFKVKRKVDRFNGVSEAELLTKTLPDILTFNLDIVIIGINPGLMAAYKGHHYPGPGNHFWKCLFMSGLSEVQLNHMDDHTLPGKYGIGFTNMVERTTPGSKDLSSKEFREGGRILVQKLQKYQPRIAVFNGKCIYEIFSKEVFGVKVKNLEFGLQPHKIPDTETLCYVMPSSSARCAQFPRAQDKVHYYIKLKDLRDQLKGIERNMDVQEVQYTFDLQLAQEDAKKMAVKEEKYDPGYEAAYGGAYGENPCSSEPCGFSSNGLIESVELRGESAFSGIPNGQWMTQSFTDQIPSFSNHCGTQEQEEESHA
Description: Inhibition of TDG by quantifying inhibition of TDG-mediated cleavage and dissociation of quenched duplex DNA oligonucleotides, measured as fluorescence at 594 nm. To generate a functional strand incision and increase turn-over this assay is coupled to APE1.

[5] = molecular target: Methyl-CpG-binding domain protein 4 (Homo sapiens) (UniProt O95243);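 note: MBD4 activity read as fluorescence at 594 nm from cleavage and release of a quenched duplex DNA oligonucleotide, with APE1 coupled to incise the strand and raise turnover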
Sequence of Methyl-CpG-binding domain protein 4 (Homo sapiens) (O95243 whole entry, the tested form may be a part): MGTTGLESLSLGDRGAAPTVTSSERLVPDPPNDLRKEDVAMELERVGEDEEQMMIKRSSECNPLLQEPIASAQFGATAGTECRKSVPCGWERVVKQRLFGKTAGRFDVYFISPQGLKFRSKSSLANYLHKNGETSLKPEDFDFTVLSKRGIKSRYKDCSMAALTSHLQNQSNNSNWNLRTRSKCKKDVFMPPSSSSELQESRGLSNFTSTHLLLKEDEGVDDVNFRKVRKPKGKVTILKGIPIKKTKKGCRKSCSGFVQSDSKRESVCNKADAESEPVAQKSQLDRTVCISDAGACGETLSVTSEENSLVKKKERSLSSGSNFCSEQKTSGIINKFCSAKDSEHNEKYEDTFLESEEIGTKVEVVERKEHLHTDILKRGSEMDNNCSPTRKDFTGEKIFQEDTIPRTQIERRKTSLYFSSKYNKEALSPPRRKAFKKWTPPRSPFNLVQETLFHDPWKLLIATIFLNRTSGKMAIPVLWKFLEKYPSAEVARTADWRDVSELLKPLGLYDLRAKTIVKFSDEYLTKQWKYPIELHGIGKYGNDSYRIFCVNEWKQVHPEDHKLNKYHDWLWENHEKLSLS
Description: Inhibition of MBD4 by quantifying inhibition of MBD4-mediated cleavage and dissociation of quenched duplex DNA oligonucleotides, measured as fluorescence at 594 nm. To generate a functional strand incision and increase turn-over this assay is coupled to APE1.

[6] = molecular target: Uracil-DNA glycosylase (Homo sapiens) (UniProt P13051);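 note: UNG excision on a quenched double-stranded DNA oligo probe, with APE1 added for strand incision and turnover, read as fluorescence at 594 nm as strands separate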
Sequence of Uracil-DNA glycosylase (Homo sapiens) (P13051 whole entry): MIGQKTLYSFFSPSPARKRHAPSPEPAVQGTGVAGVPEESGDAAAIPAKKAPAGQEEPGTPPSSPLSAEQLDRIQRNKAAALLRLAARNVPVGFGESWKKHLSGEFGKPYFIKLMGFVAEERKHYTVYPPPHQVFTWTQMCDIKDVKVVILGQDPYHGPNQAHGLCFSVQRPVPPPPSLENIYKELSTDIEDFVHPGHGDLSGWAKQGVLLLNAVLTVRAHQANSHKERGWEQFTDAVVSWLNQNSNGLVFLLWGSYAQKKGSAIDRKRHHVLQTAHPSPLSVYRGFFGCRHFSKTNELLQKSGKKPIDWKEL
Description: Inhibition of UNG by quantifying inhibition of UNG-mediated cleavage and dissociation of quenched duplex DNA oligonucleotides, measured as fluorescence at 594 nm. To generate a functional strand incision and increase turn-over this assay is coupled to APE1.

[7] = molecular target: T3, Endonuclease 8-like 2 (Homo sapiens) (UniProt Q969S2);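 note: fluorescence at 594 nm reports NEIL2 cutting and release of a quenched double-stranded DNA oligo substrate, reduced signal read as inhibition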
T3 sequence (whole entry): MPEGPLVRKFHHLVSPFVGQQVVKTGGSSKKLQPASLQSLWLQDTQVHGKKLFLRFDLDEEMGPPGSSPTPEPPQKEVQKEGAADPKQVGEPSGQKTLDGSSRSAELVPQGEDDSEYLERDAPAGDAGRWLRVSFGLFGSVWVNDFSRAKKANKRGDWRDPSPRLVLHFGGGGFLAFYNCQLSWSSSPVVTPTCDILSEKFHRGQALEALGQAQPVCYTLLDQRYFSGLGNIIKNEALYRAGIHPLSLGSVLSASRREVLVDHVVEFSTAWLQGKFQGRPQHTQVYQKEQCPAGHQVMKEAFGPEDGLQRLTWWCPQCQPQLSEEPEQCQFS
Description: Inhibition of NEIL2 by quantifying inhibition of NEIL2-mediated cleavage and dissociation of quenched duplex DNA oligonucleotides, measured as fluorescence at 594 nm.

[8] = molecular target: N-glycosylase/DNA lyase (Homo sapiens) (UniProt O15527);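 note: OGG1 cleavage of a quenched duplex DNA oligonucleotide, coupled to APE1 for strand incision, read as fluorescence at 594 nm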
Sequence of N-glycosylase/DNA lyase (Homo sapiens) (O15527 whole entry): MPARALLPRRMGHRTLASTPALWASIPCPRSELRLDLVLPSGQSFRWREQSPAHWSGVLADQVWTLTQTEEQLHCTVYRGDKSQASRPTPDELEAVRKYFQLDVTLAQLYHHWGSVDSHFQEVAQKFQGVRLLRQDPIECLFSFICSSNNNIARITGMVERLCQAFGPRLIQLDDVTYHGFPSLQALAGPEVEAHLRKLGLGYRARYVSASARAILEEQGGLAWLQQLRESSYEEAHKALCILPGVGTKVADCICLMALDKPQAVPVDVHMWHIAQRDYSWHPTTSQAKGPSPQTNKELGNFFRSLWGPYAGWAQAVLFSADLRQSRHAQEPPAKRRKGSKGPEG
Description: Inhibition of OGG1 by quantifying inhibition of OGG1-mediated cleavage and dissociation of quenched duplex DNA oligonucleotides, measured as fluorescence at 594 nm. To generate a functional strand incision and increase turn-over this assay is coupled to APE1.

[9] = Compound Concentration 10.0 uM, tested as the 2H-labelled form

Sequence of Endonuclease 8-like 1 (Homo sapiens) (Q96FI4 whole entry): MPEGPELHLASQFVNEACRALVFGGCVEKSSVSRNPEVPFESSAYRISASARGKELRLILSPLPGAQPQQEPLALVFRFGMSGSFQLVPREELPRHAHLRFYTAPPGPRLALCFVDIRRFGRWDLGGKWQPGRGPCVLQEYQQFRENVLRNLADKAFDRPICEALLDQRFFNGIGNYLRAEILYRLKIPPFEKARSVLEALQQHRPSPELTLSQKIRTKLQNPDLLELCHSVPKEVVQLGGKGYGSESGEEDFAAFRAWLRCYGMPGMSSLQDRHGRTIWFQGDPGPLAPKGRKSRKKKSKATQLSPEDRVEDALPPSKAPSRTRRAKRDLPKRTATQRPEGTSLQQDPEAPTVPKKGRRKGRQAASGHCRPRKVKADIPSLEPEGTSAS

Compound | inhibition ([2]; Compound Concentration 1.0 uM) [%] | inhibition ([3]; Compound Concentration 1.0 uM) [%] | inhibition ([4]; Compound Concentration 1.0 uM) [%] | inhibition ([5]; Compound Concentration 1.0 uM) [%] | inhibition ([6]; Compound Concentration 1.0 uM) [%] | inhibition ([7]; Compound Concentration 1.0 uM) [%] | inhibition ([8]; Compound Concentration 1.0 uM) [%] | inhibition ([2]; Compound Concentration 10.0 uM) [%] | inhibition ([3]; Compound Concentration 10.0 uM) [%] | inhibition ([4]; Compound Concentration 10.0 uM) [%] | inhibition ([5]; Compound Concentration 10.0 uM) [%] | inhibition ([6]; Compound Concentration 10.0 uM) [%] | inhibition ([7]; Compound Concentration 10.0 uM) [%] | inhibition ([8]; Compound Concentration 10.0 uM) [%] | other results
O=C(Cc1ccccc1)Nc1nnc(N2CC[C@@H]3[C@H]2CN3c2cccnn2)s1 | 7.76 | 9.42 | 43.7 | 66 | 9.87 | -8.65 | 3.62 | – | – | – | – | – | – | – | inhibition ([1]; Compound Concentration 1.0 uM): 0.316%
N#CN1CC[C@@H](C(=O)Nc2nc3c(s2)CN(C(=O)CN=[N+]=[N-])CC3)C1 | – | – | – | – | – | – | – | -2.56 | 2.3 | 50.9 | 54.3 | 4.95 | -7.63 | 3.62 | inhibition ([1]; Compound Concentration 10.0 uM): 6.22%
COc1cc(-c2cn([C@H]3CCc4c(F)cccc4N(CC(F)(F)F)C3=O)nn2)ccc1-n1cnc(C)c1 | – | – | – | – | – | – | – | 0.879 | 19.7 | 47.4 | 40 | 4.8 | 11.2 | 6.38 | inhibition ([1]; Compound Concentration 10.0 uM): -9.83%
CCO[C@@H](Cc1ccc(OCCc2ccc(OS(C)(=O)=O)cc2)cc1)C(=O)O | – | – | – | – | – | – | – | -4.86 | 20.9 | 43.6 | 65.1 | 1.73 | -6.87 | 7.36 | –
CCS(=O)(=O)c1cc2cc(C[C@@](O)(CC(C)(C)c3ccc(F)cc3C(N)=O)C(F)(F)F)[nH]c2cn1 | -2.67 | 5.35 | 28.1 | 66.5 | -1.88 | -6.61 | -3.12 | – | – | – | – | – | – | – | –
CCNC(=O)c1cc2c(N3CCOC[C@@H]3C)ccnc2n1C | – | – | – | – | – | – | – | -5.18 | 6.82 | 31.4 | 67 | -0.625 | -9.42 | 11.4 | –
COc1cc2c(cc1CC=C(C)C)C(=O)C[C@@H](c1ccc(O)cc1)O2 | – | – | – | – | – | – | – | -5.24 | 19.4 | 49.3 | 61.9 | 0.826 | -5.59 | 19.1 | –
NC(=O)c1ccc2nc(-c3ccc(C4(N)CCC4)cc3)c(-c3ccccc3)n2n1 | 26.6 | 21.7 | 71.4 | 31.7 | 3.74 | -7.61 | 4.13 | – | – | – | – | – | – | – | –
C[C@@H](NC(=O)Nc1cc2[nH]ncc2c(CO)n1)c1ccccc1 | – | – | – | – | – | – | – | 3.93 | 21.2 | 70.5 | 29.7 | 3.78 | -3.37 | 4.45 | –
CC1(C)Cn2nc(-c3ccc(F)cn3)c(-c3ccnc4[nH]ncc34)c2CO1 | – | – | – | – | – | – | – | – | – | – | – | – | – | – | inhibition [2, 9]: -5.13%; inhibition [3, 9]: 12.7%; inhibition [4, 9]: 99.8%; inhibition [5, 9]: 55.2%; inhibition [6, 9]: 0.65%; inhibition [7, 9]: -8.4%; inhibition [8, 9]: -6.31%
Cc1nc(-c2cn3c(n2)-c2ccc(-c4cnn(C(C)(C)C(N)=O)c4)cc2OCC3)n(C(C)C)n1 | 3.04 | 19.2 | 60 | -2.34 | 0.537 | -7.57 | 1.09 | – | – | – | – | – | – | – | –
O=C(NCc1ncc(C(F)(F)F)cc1Cl)c1ccc2c(c1)C1(CCS(=O)(=O)CC1)[C@H](C1CC1)N2S(=O)(=O)c1ccc(F)cc1 | 2.13 | -4 | 38.8 | 59.6 | -0.35 | -0.744 | -6.07 | – | – | – | – | – | – | – | –
CCC(=O)N[C@H]1CC[C@@H](C(=O)N(C)c2ccc(-c3nc4ccccc4o3)cc2)C1 | – | – | – | – | – | – | – | 8.31 | 9.01 | 41.7 | 62.4 | -2.88 | 8.7 | -8.13 | –
C[C@@H]1CN(c2ncc(Cl)c(Nc3ccc4c(c3)n(CCC(C)(C)O)c(=O)n4C)n2)C[C@H](C)C1(F)F | – | – | – | – | – | – | – | 2.19 | 18 | 57.5 | 66.3 | 9.4 | -9.67 | -2.08 | –
